Read-outs that look alike come from different tables or passages of the source. Bridge positions count the residues as written; N and C are the ends. Square brackets hold non-standard residues; d marks the D form. Ends that are not written are not given here. Peptide text beside a SMILES is read from it. Pen = CC(C)(S)[C@H](N)C(=O)O
Legend:
[1] = test system: human tonsil T cells (responders) with irradiated human mononuclear stimulator cells; T-cell proliferation; type: cell-based; settings: for inhibitory effect on T-cell proliferation: FIG. 3, tested at 125, 250 and 500 μM; for Inhibition of T-cell Proliferation (%): peptides at 500 μM; for effectiveness in inhibiting responder T-cell proliferation: FIG. 2, tested at 50, 150, 250, 350, 500 and 750 μM
Source text: The one-way MLR has been previously described (Kruisbeek et al., Current Protocols in Immunology, Proliferative Assays for T-Cell Function, '3.12.1-3.12.14 (1991), which is incorporated herein by reference). Specifically, human tonsil T cells were suspended at a concentration of 2−4×10^6 cells/ml in cell culture medium (RPMI), for use as responders. Stimulator cells were human mononuclear cells isolated from first Ficoll separation of peripheral blood (buffy coat) and were suspended at a concentration of 2−4×10^6 cells/ml in cell culture medium (RPMI). The stimulator cells were inactivated before use by treatment with 3,000-5,000 rad of ionizing radiation from γ137Cs source. One hundred μl of each cell suspension were combined in each well of a 96-well plate in the absence or presence of varying concentrations of test polypeptides, as detailed below. Cell proliferation was assessed after 72 hours, by 3H-thymidine addition to each well (1 μCi/well, 67 Ci/mmol) with incubation for six hours. The cells were harvested using a PHD Cell Harvester (Cambridge Technology, Inc., Watertown, Mass.); the incorporated 3H was assessed using a liquid scintillation counter (Packard Instrument, Inc., Donner's Grove, Ill.).
In FIGS. 2 and 3, the Y-axis values are mean percentage ±SE of proliferation of responders. “2s” refers to irradiated buffy coat cells, and “2r” refers to T-lymphocytes derived from tonsil. “2s2r” refers to non-treated, mixed lymphocyte sample, which is the positive control (represented by dashed line). Inhibition of proliferation by anti-CD11a antibody (Pharmingen, anti-human CD11a) was used as a control for inhibition of the LFA-1/ICAM-1 interaction. These polypeptides are derived from the human LFA-1 β (CD18) subunit.

[2] = molecular target: intracellular adhesion molecule (ICAM-1; CD54) (UniProt P05362 28-532, limits assumed); assay: cell-based or functional assay
[3] = linear D-peptides (*3), minus value = peptide activated T-lymphocytes

Sequence of intracellular adhesion molecule (ICAM-1; CD54) (P05362 28-532 limits assumed): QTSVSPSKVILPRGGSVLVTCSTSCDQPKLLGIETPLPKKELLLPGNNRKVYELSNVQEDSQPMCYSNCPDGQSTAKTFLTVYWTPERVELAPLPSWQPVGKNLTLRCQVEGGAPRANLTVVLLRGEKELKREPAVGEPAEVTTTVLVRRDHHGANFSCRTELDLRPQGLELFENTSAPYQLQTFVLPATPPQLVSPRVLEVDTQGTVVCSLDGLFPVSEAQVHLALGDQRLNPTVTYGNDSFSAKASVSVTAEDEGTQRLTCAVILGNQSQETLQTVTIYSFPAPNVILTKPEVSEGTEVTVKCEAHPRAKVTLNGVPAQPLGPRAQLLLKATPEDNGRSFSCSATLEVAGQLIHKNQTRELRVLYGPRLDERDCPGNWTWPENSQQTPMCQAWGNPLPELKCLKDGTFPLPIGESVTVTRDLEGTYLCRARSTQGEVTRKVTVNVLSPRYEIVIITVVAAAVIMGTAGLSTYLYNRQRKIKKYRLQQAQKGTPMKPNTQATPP

H-GGDLLRALNE-OH (H-GG[dD][dL][dL][dR][dA][dL][dN][dE]-OH) [D-LBER]
inhibitory effect on T-cell proliferation [1]: lost the biological function to inhibit T-cell proliferation
Inhibition of T-cell Proliferation (%) [1, 3]: −90.5(*4) %

LBEL: linear L-peptide of Table 2, sequence not printed (DLSYSLDDLR)
Inhibition of T-cell Proliferation (%) ([1]; linear L-peptides (*1), second value of cell 'x/y'): N.D./24.8%

CC(C)C[C@@H]1NC(=O)[C@H](CC(=O)O)NC(=O)[C@H](CC(=O)O)NC(=O)[C@H](CC(C)C)NC(=O)[C@H](CO)NC(=O)[C@H](Cc2ccc(O)cc2)NC(=O)[C@H](CO)NC(=O)[C@H](CC(C)C)NC(=O)[C@H](CC(=O)O)NC(=O)[C@@H](N)C(C)(C)SSC[C@@H](C(N)=O)NC(=O)[C@H](CCCNC(=N)N)NC1=O [cLBEL, H-PenDLSYSLDDLRC-NH2] (H-[Pen]DLSYSLDDLRC-NH2; disulfide 1-12)
effectiveness in inhibiting responder T-cell proliferation [1]: more effective than LBE

CC(C)C[C@@H]1NC(=O)[C@H](CCCCN)NC(=O)[C@H](CCCCN)NC(=O)[C@H](C(C)C)NC(=O)[C@H](CC(N)=O)NC(=O)[C@H](CCCNC(=N)N)NC(=O)[C@H](CC(C)C)NC(=O)[C@H](CC(=O)O)NC(=O)[C@@H](N)C(C)(C)SSC[C@@H](C(N)=O)NC(=O)CNC(=O)CNC1=O [cLBEC, H-PenDLRNVKKLGGC-NH2] (H-[Pen]DLRNVKKLGGC-NH2; disulfide 1-12)
effectiveness in inhibiting responder T-cell proliferation [1]: more effective than LBE

H-DLRNVKKLGG-H (H-[dD][dL][dR][dN][dV][dK][dK][dL]GG; not fully specified; also: C-terminus written -H) [D-LBEC]
inhibitory effect on T-cell proliferation [1]: did not show any inhibitory effects
Inhibition of T-cell Proliferation (%) [1, 3]: −47.6(*4) %

CC(C)C[C@@H](NC(=O)[C@H](N)CC(=O)O)C(=O)N[C@H](CO)C(=O)N[C@H](Cc1ccc(O)cc1)C(=O)N[C@H](CO)C(=O)N[C@H](CC(C)C)C(=O)N[C@H](CC(=O)O)C(=O)N[C@H](CC(=O)O)C(=O)N[C@H](CC(C)C)C(=O)N[C@H](CCCNC(=N)N)C(=O)O [D-LBEL, H-DLSYSLDDLR-OH] (H-[dD][dL][dS][dY][dS][dL][dD][dD][dL][dR]-OH)
inhibiting T-cell proliferation in MLR assays [1]: significantly effective
inhibitory effect on T-cell proliferation [1]: amazing inhibitory effect, which was much more effective than either LBE or cLBEL

B1: cLBEL (peptide)
peptide: H-[Pen]DLSYSLDDLRC-NH2
modifications: disulfide 1-12
SMILES: CC(C)C[C@@H]1NC(=O)[C@H](CC(=O)O)NC(=O)[C@H](CC(=O)O)NC(=O)[C@H](CC(C)C)NC(=O)[C@H](CO)NC(=O)[C@H](Cc2ccc(O)cc2)NC(=O)[C@H](CO)NC(=O)[C@H](CC(C)C)NC(=O)[C@H](CC(=O)O)NC(=O)[C@@H](N)C(C)(C)SSC[C@@H](C(N)=O)NC(=O)[C@H](CCCNC(=N)N)NC1=O
Inhibition of T-cell Proliferation (%) in mixed lymphocyte reaction, peptide at 500 µM [2]: 18%

B2: D-LBEL (peptide)
peptide: H-[dD][dL][dS][dY][dS][dL][dD][dD][dL][dR]-OH
SMILES: CC(C)C[C@@H](NC(=O)[C@H](N)CC(=O)O)C(=O)N[C@H](CO)C(=O)N[C@H](Cc1ccc(O)cc1)C(=O)N[C@H](CO)C(=O)N[C@H](CC(C)C)C(=O)N[C@H](CC(=O)O)C(=O)N[C@H](CC(=O)O)C(=O)N[C@H](CC(C)C)C(=O)N[C@H](CCCNC(=N)N)C(=O)O
Inhibition of T-cell Proliferation (%) in mixed lymphocyte reaction, peptide at 500 µM [2]: 56.5%

H-[dD][dL][dR][dN][dV][dK][dK][dL]GG (not fully specified (C-terminus)) [D-LBEC]
Inhibition of T-cell Proliferation (%) in mixed lymphocyte reaction, peptide at 500 µM [2]: -47.6%

DLSYSLDDLR [LBEL (linear L-peptide)]
Inhibition of T-cell Proliferation (%) in mixed lymphocyte reaction, peptide at 500 µM [2]: 24.8%

B3: cLBEC (peptide)
peptide: H-[Pen]DLRNVKKLGGC-NH2
modifications: disulfide 1-12
SMILES: CC(C)C[C@@H]1NC(=O)[C@H](CCCCN)NC(=O)[C@H](CCCCN)NC(=O)[C@H](C(C)C)NC(=O)[C@H](CC(N)=O)NC(=O)[C@H](CCCNC(=N)N)NC(=O)[C@H](CC(C)C)NC(=O)[C@H](CC(=O)O)NC(=O)[C@@H](N)C(C)(C)SSC[C@@H](C(N)=O)NC(=O)CNC(=O)CNC1=O
Inhibition of T-cell Proliferation (%) in mixed lymphocyte reaction, peptide at 500 µM [2]: 18%

B4: D-LBER (peptide)
peptide: H-GG[dD][dL][dL][dR][dA][dL][dN][dE]-OH
SMILES: CC(C)C[C@@H](NC(=O)[C@@H](C)NC(=O)[C@@H](CCCNC(=N)N)NC(=O)[C@@H](CC(C)C)NC(=O)[C@@H](CC(C)C)NC(=O)[C@@H](CC(=O)O)NC(=O)CNC(=O)CN)C(=O)N[C@H](CC(N)=O)C(=O)N[C@H](CCC(=O)O)C(=O)O
Inhibition of T-cell Proliferation (%) in mixed lymphocyte reaction, peptide at 500 µM [2]: -90.5%

From patent publication US6599506B1, “D-form polypeptide that inhibits the interaction between LFA-1 and ICAM-1” (The University of Kansas, priority 1999, dated 2003)
